Assay results: US4806554A, “Pyrazol and indazolpyridinamines” (Hoechst-Roussel Pharmaceuticals, Inc., priority 1988, dated 1989)
Read-outs that look alike come from different tables or passages of the source.

Assays:
[1] = system: sensitivity of mice to pressure stress (artery clip on tail); experiment: Modified Haffner's analgesia (artery clip on tail); type: in vivo, mice (Charles River; details: Mus musculus, sc; at peak time of drug activity; male CD-1 mice
Description: The latter assay is used to evaluate analgesic activity by measuring drug-induced changes in the sensitivity of mice to pressure stress by placing an artery clip (21/2 inches long) on their tail. The procedure used is a modification of the test developed by Haffner, Dtsch. Med. Wschr. 55, 731 (1929), and it is described below:
Male mice (Charles River, CD-1) from 18-30 grams are used for the test. An artery clip is applied to the root of the tail of a mouse (approximately 1/2 inch from the body) to induce pain. The animals quickly responds to this noxious stimuli by biting the clip or the location of the clip. This reaction time, the interval between stimulus onset and response, is recorded on 1/10 second increments by a stop watch.
For a time response, the screening dose (25 mg/kg) is administered subcutaneously (10 ml/kg) to the animal receiving food and water ad libitum before testing. […]
The cut-off time (CO) is determined by taking the (x) average +3 standard (SD) deviation of the combined response latencies of the control mice in all time periods.
Any reaction time, in subsequent drug tests, which is greater than the CO (for the same time period) therefore exceeds 99% of normal Gaussian distribution and is called "positive response" indicative of analgesic activity. […] The ED50 is determined at the peak time of drug activity. […] ED50 's are calculated using computer analysis.

[2] = system: 2-phenyl-1,4-benzoquinone-induced writhing in mice; experiment: 2-phenyl-1,4-benzoquinone-induced writhing (PQW) test in mice (analgesia); type: in vivo; details: s.c.
Description: Compounds I of the present invention are also useful as analgesic agents due to their ability to alleviate pain in mammals. […] Exptl. Biol. Med., 95, 729(1957)] and in modified Haffner's analgesia.

[3] = system: tetrabenazine-induced ptosis in mice; experiment: Prevention of tetrabenazine-induced ptosis in mice (antidepressant activity); type: in vivo; details: Mus musculus, po, read-out: ED50 (antidepressant activity)
Description: The test method and results are described below.
PREVENTION OF TETRABENAZINE-INDUCED PTOSIS IN MICE
Tetrabenazine (TBZ) induces behavioral depression with concomitant ptosis in mice similar to reserpine. Antidepressant compounds, both monoamineoxidase inhibitors and tricyclics, are known to prevent or antagonize these effects and the degree of antagonism correlates with clinical efficacy. The prevention of TBZ-induced ptosis in mice is used as a preliminary screen for possible antidepressant activity. The method used in this invention is as follows:
Male mice weighing 20 to 30 grams are used in test groups of five subjects. All compounds are dissolved or suspended with a suitable surfactant in distilled water and administered in volumes of 10 ml/kg of body weight. TBZ solution is made from the methanesulfonate salt and the concentration is adjusted to enable administration of 60 mg/kg of base by intraperitoneal (i.p.) injection.
The pretreatment time is measured from the time of dosing to observation. Therefore, when a 30-minute pretreat is utilized, drug and TBZ are given simultaneously. A control group received solvent and TBZ at intervals identical to drug group. For a primary screen, the drug is administered i.p. and a group size of five is utilized. Eight animals/group are used for a dose range.
The total score for each group of five in a primary screen will, therefore, be from 0 to 20 and these scores are used as indications of drug activity.
The vehicle control group score is used as a determinant of the validity of each test. […] The calculation of percent inhibition of ptosis is: [formula]

In the case of CC(C)=CCN1CCC2(C)c3cc(O)ccc3CC1C2C (centres unmarked) [Pentazocin, reference compound], the ED50 [1] is reported as 3.9 mg/kg and the “PQW (% Inhibition of writhing)” value ([2]; at 1.3 mg/kg) is reported as 50%.

CNCCCN1c2ccccc2CCc2ccccc21 [Desipramine, reference compound] was tested, and the ED50 [3] was 2.3 mg/kg.

O=C(O)/C=C\C(=O)O.c1ccc2c(c1)cnn2Nc1ccncc1 [N-(4-Pyridinyl)-1H-indazol-1-amine maleate] was tested, and the ED50 [1] was 10.4 mg/kg, the ED50 ([3]; TBZ 60 mg/kg i.p., male mice) was 2.7 mg/kg and the “PQW (% Inhibition of writhing)” value ([2]; at 0.7 mg/kg) was 50%.

In the case of CCCN(c1ccncc1)n1ncc2ccccc21.O=C(O)/C=C\C(=O)O [N-(Propyl)-N-(4-pyridinyl)-1H-indazol-1-amine maleate], the ED50 ([3]; TBZ 60 mg/kg i.p., male mice) is reported as 8.5 mg/kg and the “PQW (% Inhibition of writhing)” value ([2]; at 20 mg/kg) is reported as 62%.
